The values that follow come from US6573293B2, “Pyrrole substituted 2-indolinone protein kinase inhibitors” (Sugen, Inc., priority 2000, dated 2003).

Assay [1] addresses T1, EGFR (Homo sapiens, UniProt P00533).
T1 construct: A431 cell lysate (SUGEN, Inc.); host or cells: A431
Briefly: EGFR bioassay (bio EGF). It counts as biochemical.

The next assay concerns the target T2, human cdk2/cyclin A (Homo sapiens, UniProt P24941).
T2 construct: host or cells: Sf9
As to the kind of experiment: CDK2/cyclin A scintillation proximity assay (cdk2spa). The format is biochemical. Particulars: read-out: cdk2spa C50. Background: Scintillation proximity formats need no separation of bound from free tracer.

Assay [2] concerns the target T1, EGFR. As to the kind of experiment: cell EGF assay. It counts as cell-based. An outline of the steps:
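Cells expressing the kinase are exposed to compound, then stimulated with activating ligand and lysed. Lysate is captured on substrate-specific antibody ELISA plates and substrate phosphorylation is detected with anti-phosphotyrosine antibody, relative to untreated control cells.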

The target of the next assay is T3, HER-2 kinase (Homo sapiens, UniProt P04626).
T3 construct: Use EGFr/HER-2 chimera/3T3-C7 cell line for this assay; It is expressed in mouse NIH 3T3 clone C7 cells; P00533 (Epidermal growth factor receptor)
As to the kind of experiment: Cellular HER-2 kinase assay. It counts as cell-based. The conditions noted are these: read-out: Her2 Kinase IC50.

For a further assay, the target named is T4, PDGFR-β (Homo sapiens, UniProt P09619).
T4 construct: host or cells: NIH 3T3
As to the kind of experiment: PDGFR bioassay (bio PDGF). The format is biochemical.

In assay [3] the target is T5, HA epitope-tagged full length pyk2 (FL.pyk2-HA) (Homo sapiens, UniProt Q14289).
T5 construct: host or cells: Sf9
As to the kind of experiment: PYK2 bioassay. The format is biochemical. The conditions noted are these: read-out: bio pyk2 IC50.

Another assay concerns the target GST-FGFR1 (Homo sapiens, UniProt P11362). Briefly: FGFR1 bioassay (bio PGFR1). It counts as biochemical.
The target in the next assay is T6, GST-Flk1 (Mus musculus, UniProt P35918).
T6 construct: GST-Flk1cd purified from sf9 recombinant baculovirus transformation; host or cells: Sf9 (baculovirus)
Briefly: GST-FLK-1 bioassay (bio flkGST). The format is biochemical.

T4 sequence (P09619 33-1106): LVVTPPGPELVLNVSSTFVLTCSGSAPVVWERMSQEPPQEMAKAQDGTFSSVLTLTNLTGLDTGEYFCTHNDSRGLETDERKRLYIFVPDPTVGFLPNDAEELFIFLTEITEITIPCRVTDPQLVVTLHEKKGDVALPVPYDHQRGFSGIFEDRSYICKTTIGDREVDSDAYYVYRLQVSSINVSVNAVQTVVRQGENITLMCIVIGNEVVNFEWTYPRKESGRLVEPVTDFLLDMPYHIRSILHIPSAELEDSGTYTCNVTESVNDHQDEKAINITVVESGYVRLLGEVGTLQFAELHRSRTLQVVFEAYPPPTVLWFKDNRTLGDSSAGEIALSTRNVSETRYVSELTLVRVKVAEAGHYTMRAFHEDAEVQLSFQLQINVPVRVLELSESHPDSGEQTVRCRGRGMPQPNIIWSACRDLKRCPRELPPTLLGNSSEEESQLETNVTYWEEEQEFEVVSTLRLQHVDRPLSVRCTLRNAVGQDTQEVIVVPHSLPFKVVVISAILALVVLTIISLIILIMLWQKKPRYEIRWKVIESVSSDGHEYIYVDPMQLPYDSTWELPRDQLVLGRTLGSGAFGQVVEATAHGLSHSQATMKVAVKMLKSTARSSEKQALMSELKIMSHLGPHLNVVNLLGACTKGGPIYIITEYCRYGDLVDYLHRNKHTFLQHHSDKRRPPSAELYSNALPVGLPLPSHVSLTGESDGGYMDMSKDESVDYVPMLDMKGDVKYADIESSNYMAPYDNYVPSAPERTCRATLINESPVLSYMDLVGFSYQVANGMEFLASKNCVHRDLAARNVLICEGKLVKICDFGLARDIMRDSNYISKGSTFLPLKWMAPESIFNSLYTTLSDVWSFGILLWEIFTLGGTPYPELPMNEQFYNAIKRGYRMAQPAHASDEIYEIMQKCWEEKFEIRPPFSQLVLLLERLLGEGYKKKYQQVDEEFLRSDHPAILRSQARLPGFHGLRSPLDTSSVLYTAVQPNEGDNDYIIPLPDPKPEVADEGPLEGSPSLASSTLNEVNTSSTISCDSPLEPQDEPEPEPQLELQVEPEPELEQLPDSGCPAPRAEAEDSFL
Chain of GST-FGFR1 (P11362 22-822): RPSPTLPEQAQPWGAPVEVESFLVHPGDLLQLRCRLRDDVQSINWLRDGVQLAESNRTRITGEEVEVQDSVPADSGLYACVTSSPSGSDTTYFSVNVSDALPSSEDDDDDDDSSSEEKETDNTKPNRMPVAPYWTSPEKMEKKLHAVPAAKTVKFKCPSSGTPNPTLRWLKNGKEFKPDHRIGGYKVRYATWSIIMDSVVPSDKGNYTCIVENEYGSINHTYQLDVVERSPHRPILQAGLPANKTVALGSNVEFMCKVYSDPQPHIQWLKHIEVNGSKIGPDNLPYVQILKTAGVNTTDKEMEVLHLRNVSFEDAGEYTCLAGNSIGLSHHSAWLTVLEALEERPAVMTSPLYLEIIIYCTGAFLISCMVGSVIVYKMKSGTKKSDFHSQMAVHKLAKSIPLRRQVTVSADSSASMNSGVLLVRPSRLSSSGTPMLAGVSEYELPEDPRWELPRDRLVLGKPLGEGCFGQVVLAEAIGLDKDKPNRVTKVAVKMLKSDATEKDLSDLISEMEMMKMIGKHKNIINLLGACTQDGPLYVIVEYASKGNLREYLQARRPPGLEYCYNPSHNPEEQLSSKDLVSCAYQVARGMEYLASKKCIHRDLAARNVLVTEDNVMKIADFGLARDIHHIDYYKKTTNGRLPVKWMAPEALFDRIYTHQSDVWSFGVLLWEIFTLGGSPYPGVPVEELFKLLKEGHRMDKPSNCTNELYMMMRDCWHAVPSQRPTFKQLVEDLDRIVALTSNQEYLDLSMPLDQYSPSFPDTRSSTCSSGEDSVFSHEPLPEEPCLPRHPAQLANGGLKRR
T6 sequence (P35918 784-1345 limits assumed): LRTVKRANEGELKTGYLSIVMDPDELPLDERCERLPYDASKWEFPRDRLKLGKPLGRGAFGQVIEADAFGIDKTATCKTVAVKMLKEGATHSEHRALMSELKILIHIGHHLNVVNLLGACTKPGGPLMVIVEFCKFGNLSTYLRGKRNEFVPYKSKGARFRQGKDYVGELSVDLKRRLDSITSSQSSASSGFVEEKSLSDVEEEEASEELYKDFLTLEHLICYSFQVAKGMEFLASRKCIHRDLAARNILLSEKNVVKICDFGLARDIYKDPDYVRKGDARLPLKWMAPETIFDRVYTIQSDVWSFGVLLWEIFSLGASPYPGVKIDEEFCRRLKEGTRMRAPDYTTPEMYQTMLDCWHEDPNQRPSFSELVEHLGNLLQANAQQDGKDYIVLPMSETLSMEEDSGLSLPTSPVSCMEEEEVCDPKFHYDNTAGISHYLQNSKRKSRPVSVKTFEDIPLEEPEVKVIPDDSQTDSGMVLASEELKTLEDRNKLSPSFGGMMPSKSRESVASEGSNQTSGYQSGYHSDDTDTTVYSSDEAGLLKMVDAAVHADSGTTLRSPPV
T5 sequence (Q14289 whole entry): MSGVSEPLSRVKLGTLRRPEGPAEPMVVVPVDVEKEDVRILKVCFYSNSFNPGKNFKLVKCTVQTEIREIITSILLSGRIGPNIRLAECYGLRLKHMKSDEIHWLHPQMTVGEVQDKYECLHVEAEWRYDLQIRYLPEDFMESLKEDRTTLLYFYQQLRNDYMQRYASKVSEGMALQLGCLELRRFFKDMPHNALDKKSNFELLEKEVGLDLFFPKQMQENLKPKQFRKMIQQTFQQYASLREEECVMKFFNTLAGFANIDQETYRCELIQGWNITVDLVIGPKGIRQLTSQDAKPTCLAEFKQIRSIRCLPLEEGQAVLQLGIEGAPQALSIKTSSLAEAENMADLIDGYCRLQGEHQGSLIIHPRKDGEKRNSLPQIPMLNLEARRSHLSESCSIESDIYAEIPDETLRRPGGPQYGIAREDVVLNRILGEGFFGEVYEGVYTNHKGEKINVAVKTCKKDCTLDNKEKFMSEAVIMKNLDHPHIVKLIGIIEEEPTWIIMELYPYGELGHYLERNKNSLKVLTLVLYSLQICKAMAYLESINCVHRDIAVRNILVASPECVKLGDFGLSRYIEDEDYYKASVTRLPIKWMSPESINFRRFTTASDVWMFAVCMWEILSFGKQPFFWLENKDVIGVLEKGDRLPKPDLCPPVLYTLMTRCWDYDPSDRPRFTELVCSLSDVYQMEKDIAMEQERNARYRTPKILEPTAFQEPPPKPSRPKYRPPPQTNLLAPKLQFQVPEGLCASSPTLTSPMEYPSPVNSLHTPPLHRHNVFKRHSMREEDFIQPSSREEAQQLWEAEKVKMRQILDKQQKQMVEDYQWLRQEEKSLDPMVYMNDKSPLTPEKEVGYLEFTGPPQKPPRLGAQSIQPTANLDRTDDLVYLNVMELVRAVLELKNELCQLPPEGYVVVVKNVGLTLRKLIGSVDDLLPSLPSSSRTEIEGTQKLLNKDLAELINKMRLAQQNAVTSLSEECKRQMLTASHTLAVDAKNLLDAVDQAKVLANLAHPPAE
T3 sequence (P04626 720-987 limits assumed): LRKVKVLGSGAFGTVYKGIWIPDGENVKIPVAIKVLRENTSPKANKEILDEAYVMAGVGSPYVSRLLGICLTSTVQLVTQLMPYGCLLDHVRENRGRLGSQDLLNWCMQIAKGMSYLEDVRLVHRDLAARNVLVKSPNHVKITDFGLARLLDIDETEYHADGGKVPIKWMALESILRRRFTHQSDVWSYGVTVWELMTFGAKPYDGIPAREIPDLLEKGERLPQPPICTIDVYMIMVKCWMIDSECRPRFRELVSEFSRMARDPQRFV
T1 sequence (P00533 25-1210): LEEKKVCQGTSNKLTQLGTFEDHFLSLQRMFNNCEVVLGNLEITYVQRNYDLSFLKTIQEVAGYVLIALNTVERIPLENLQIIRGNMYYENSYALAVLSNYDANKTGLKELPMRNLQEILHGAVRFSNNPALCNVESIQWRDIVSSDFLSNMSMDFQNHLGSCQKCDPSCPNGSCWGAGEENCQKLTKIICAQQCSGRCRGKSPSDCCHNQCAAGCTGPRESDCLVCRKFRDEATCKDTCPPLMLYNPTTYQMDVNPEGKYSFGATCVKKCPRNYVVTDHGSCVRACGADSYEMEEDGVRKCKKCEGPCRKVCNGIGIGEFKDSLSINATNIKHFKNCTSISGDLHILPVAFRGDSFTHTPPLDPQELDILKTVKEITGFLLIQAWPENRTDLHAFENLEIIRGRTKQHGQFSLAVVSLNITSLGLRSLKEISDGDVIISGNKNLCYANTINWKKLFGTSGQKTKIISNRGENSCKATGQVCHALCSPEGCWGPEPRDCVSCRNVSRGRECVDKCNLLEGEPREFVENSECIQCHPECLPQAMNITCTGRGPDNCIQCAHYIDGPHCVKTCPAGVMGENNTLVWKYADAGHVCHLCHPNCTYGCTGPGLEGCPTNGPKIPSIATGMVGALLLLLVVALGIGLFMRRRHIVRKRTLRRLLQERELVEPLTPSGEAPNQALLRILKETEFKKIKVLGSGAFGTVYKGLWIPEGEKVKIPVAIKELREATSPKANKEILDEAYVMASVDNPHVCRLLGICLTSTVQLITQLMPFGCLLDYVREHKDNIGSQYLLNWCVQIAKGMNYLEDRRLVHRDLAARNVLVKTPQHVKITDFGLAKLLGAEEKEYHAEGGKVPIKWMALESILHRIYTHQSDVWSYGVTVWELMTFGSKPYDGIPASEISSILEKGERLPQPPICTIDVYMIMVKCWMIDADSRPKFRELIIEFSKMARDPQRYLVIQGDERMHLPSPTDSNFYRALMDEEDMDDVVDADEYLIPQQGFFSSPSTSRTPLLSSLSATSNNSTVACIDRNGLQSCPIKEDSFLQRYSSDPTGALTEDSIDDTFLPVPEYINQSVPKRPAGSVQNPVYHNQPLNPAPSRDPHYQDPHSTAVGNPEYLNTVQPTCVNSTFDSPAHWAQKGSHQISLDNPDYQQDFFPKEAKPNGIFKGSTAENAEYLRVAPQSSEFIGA

On to `CCOC(=O)CNC(=O)c1c[nH]c(C=C2C(=O)Nc3ccc(S(=O)(=O)NC)c(C)c32)c1C` [Example 116, {[4-Methyl-5-(4-methyl-5-methylsulfamoyl-2-oxo-1,2-dihydro-indol-3-ylidenemethyl)-1H-pyrrole-3-carbonyl]-amino}-acetic acid ethyl ester], for which the IC50 against EGFR [1] was > 100 µM; on human cdk2/cyclin A it was < 0.0005 µM.
For the compound `CCN(CC)CCNC(=O)c1c(C)[nH]c(/C=C2\C(=O)Nc3ccc(Br)cc32)c1C` [Example 51, 5-(5-Bromo-2-oxo-1,2-dihydroindol-3-ylidenemethyl)-2,4-dimethyl-1H-pyrrole-3-carboxylic acid (2-diethylaminoethyl)amide], the IC50 against EGFR [2] was found to be 21.6 µM; on EGFR [1], 18.1 µM; at HER-2 kinase it was 23.2 µM; against PDGFR-β, 0.01 µM; in assay [3], 0.35 µM; at human cdk2/cyclin A, 16.7 µM. The compound further came in with an IC50 against GST-FGFR1 of 1.66 µM.
Turning to `Cc1[nH]c(/C=C2\C(=O)Nc3ccc(S(=O)(=O)N(C)C)cc32)c(C)c1C(=O)NCCN1CCCC1` [Example 82, 5-(5-Dimethylsulfamoyl-2-oxo-1,2-dihydroindol-3-ylidenemethyl)-2,4-dimethyl-1H-pyrrole-3-carboxylic acid (2-pyrrolidin-1-yl-ethyl)amide], the IC50 at GST-Flk1 amounted to 2.03 µM; on PDGFR-β, 6.88 µM; in assay [3], 0.31 µM; at GST-FGFR1, 7.69 µM.
Turning to `Cc1[nH]c(/C=C2\C(=O)Nc3ccc(S(=O)(=O)Nc4cccnc4)cc32)c(C)c1C(=O)NCCN1CCCC1` [Example 84, 2,4-Dimethyl-5-[2-oxo-5-(pyridin-3-ylsulfamoyl)-1,2-dihydroindol-3-ylidenemethyl]-1H-pyrrole-3-carboxylic acid (2-pyrrolidin-1-yl-ethyl)amide], the IC50 on EGFR [1] was 67.2 µM; on HER-2 kinase, 5.86 µM; against GST-Flk1, 1.38 µM; against PDGFR-β, 12.5 µM; in assay [3], 0.006 µM.
In the case of `CCN(CC)CCNC(=O)c1c(C)[nH]c(/C=C2\C(=O)Nc3ccc(S(=O)(=O)N(C)C)cc32)c1C` [Example 87, 5-(5-Dimethylsulfamoyl-2-oxo-1,2-dihydroindol-3-ylidenemethyl)-2,4-dimethyl-1H-pyrrole-3-carboxylic acid (2-diethylaminoethyl)amide], the IC50 on HER-2 kinase stood at 9.1 µM; against GST-Flk1, 3.27 µM; against PDGFR-β, 6.46 µM; in assay [3], 0.17 µM; against GST-FGFR1, 7.56 µM.
Regarding `CCN(CC)CCCNC(=O)c1c(C)[nH]c(/C=C2\C(=O)Nc3ccc(Br)cc32)c1C` [Example 70, 5-(5-Bromo-2-oxo-1,2-dihydroindol-3-ylidenemethyl)-2,4-dimethyl-1H-pyrrole-3-carboxylic acid (3-diethylaminopropyl)amide], the IC50 at EGFR [2] was 6.42 µM; against EGFR [1], 10.6 µM; on HER-2 kinase, 7.99 µM; on GST-Flk1 it was 0.09 µM; at PDGFR-β, 0.003 µM; in assay [3], 0.63 µM. For the same compound, the IC50 at human cdk2/cyclin A stood at 12.6 µM; at GST-FGFR1, 1.5 µM.
With `CCN(CC)CCNC(=O)c1[nH]c(/C=C2\C(=O)Nc3ccc(Br)cc32)c2c1CCCC2` [Example 17, 3-(5-Bromo-2-oxo-1,2-dihydroindol-3-ylidenemethyl)-4,5,6,7-tetrahydro-2H-isoindole-1-carboxylic acid (2-diethylaminoethyl)amide], the IC50 against EGFR [2] is 11.5 µM; on EGFR [1], 0.83 µM; at HER-2 kinase, 15.9 µM; against GST-Flk1, 8.25 µM; against PDGFR-β it was 94.4 µM; on human cdk2/cyclin A, > 10 µM. At GST-FGFR1, this compound gave an IC50 of 2.47 µM.
`Cc1[nH]c(/C=C2\C(=O)Nc3ccc(S(=O)(=O)Nc4cccc(Cl)c4)cc32)c(C)c1C(=O)NCCN1CCCC1` [Example 83, 5-[5-(3-Chloro-phenylsulfamoyl)-2-oxo-1,2-dihydroindol-3-ylidenemethyl]-2,4-dimethyl-1H-pyrrole-3-carboxylic acid (2-pyrrolidin-1-yl-ethyl)amide]: the IC50 against EGFR [1] came out at 2.18 µM; at HER-2 kinase, 86.9 µM; on GST-Flk1 it was 0.34 µM; against PDGFR-β it was 9.46 µM; in assay [3], 0.008 µM; against GST-FGFR1, 0.41 µM.
On to `CNS(=O)(=O)c1ccc2c(c1)/C(=C/c1[nH]cc(C(=O)N3CCCCC3)c1C)C(=O)N2` [Example 119, 3-[3-Methyl-4-(piperidine-1-carbonyl)-1H-pyrrol-2-ylmethylene]-2-oxo-2,3-dihydro-1H-indole-5-sulfonic acid methylamide], for which the IC50 on EGFR [1] is > 100 µM; at HER-2 kinase, > 100 µM; against GST-Flk1, 1.38 µM; against PDGFR-β, 61.6 µM; on human cdk2/cyclin A, < 0.0005 µM.
With `CCN(CC)CCCNC(=O)c1c(C)[nH]c(/C=C2\C(=O)Nc3ccc(Br)cc32)c1-c1ccccc1` [Example 47, 5-(5-Bromo-2-oxo-1,2-dihydroindol-3-ylidenemethyl)-2-methyl-4-phenyl-1H-pyrrole-3-carboxylic acid (3-diethylaminopropyl)amide], the IC50 against EGFR [2] amounted to 41.5 µM; against EGFR [1], 11.4 µM; on HER-2 kinase, 8.4 µM; at GST-Flk1 it was 0.08 µM; at PDGFR-β it was 0.06 µM; in assay [3], 1.05 µM. The compound further yielded an IC50 against GST-FGFR1 of 1.56 µM.
On to `Cc1cc(C(=O)O)[nH]c1/C=C1\C(=O)Nc2ccccc21` [Example 1, 4-Methyl-5-(2-oxo-1,2-dihydroindol-3-ylidenemethyl)-1H-pyrrole-2-carboxylic acid], for which the IC50 is > 100 µM against EGFR [2]; > 100 µM on EGFR [1]; 57.7 µM against GST-Flk1; > 100 µM on PDGFR-β; > 100 µM in assay [3]; 15.2 µM at GST-FGFR1.
Regarding `Cc1[nH]c(/C=C2\C(=O)Nc3ccc(Br)cc32)c(C)c1C(=O)NCCN(C)C` [Example 48, 5-(5-Bromo-2-oxo-1,2-dihydroindol-3-ylidenemethyl)-2,4-dimethyl-1H-pyrrole-3-carboxylic acid (2-dimethylamino-ethyl)amide], the IC50 against EGFR [2] was 21.6 µM; at EGFR [1] it was 17.9 µM; at HER-2 kinase it was 7.93 µM; against GST-Flk1 it was 0.006 µM; on PDGFR-β, < 0.78 µM; in assay [3] it was 0.09 µM. Moreover, the IC50 against GST-FGFR1 amounted to 0.3 µM.
For the compound `CNS(=O)(=O)c1ccc2c(c1)C(=Cc1[nH]cc(C(=O)NCC(=O)O)c1C)C(=O)N2` [Example 118, {[4-Methyl-5-(5-methylsulfamoyl-2-oxo-1,2-dihydro-indol-3-ylidenemethyl)-1H-pyrrole-3-carbonyl]-amino}-acetic acid], the IC50 was > 100 µM on EGFR [1] and 0.002 µM on human cdk2/cyclin A.
Regarding `CCN(CC)CCNC(=O)c1c(C)[nH]c(/C=C2\C(=O)Nc3ccc(S(=O)(=O)Nc4cccc(Cl)c4)cc32)c1C` [Example 88, 5-[5-(3-Chloro-phenylsulfamoyl)-2-oxo-1,2-dihydroindol-3-ylidenemethyl]-2,4-dimethyl-1H-pyrrole-3-carboxylic acid (2-diethylaminoethyl)amide], the IC50 on EGFR [1] is 2.36 µM; on HER-2 kinase, > 100 µM; at GST-Flk1, 0.35 µM; on PDGFR-β, 8.06 µM; in assay [3], 0.09 µM; on GST-FGFR1, 1.18 µM.
Regarding `CCOC(=O)CNC(=O)c1c[nH]c(/C=C2\C(=O)Nc3ccc(S(=O)(=O)NC)cc32)c1C` [Example 117, {[4-Methyl-5-(5-methylsulfamoyl-2-oxo-1,2-dihydro-indol-3-ylidenemethyl)-1H-pyrrole-3-carbonyl]-amino}-acetic acid ethyl ester], the IC50 on GST-Flk1 turned out to be 0.91 µM; against PDGFR-β, 12.9 µM; at human cdk2/cyclin A, 0.006 µM.
As to `Cc1[nH]c(/C=C2\C(=O)Nc3ccc(S(=O)(=O)Nc4ccccc4)cc32)c(C)c1C(=O)N1CCN(C)CC1` [Example 86, 3-[3,5-Dimethyl-4-(4-methyl-piperazine-1-carbonyl)-1H-pyrrol-2-ylmethylene]-2-oxo-2,3-dihydro-1H-indole-5-sulfonic acid phenylamide], the IC50 turned out to be 41.8 µM against EGFR [1]; 1.45 µM against GST-Flk1; 19.6 µM at PDGFR-β; 3.58 µM in assay [3]; 1.3 µM against GST-FGFR1.
Consider `CNS(=O)(=O)c1ccc2c(c1)C(=Cc1[nH]cc(C(=O)O)c1C)C(=O)N2` [Example 115, 4-Methyl-5-(5-methylsulfamoyl-2-oxo-1,2-dihydro-indol-3-ylidenemethyl)-1H-pyrrole-3-carboxylic acid], for which the results for the IC50 at EGFR [1] and on human cdk2/cyclin A were > 100 µM and 0.006 µM, respectively.
For `COC(=O)c1cc(C)c(/C=C2\C(=O)Nc3ccccc32)[nH]1` [Example 3, 4-Methyl-5-(2-oxo-1,2-dihydroindol-3-ylidenemethyl)-1H-pyrrole-2-carboxylic acid methyl ester], the IC50 was > 100 µM against EGFR [2]; > 100 µM against EGFR [1]; 9.85 µM against GST-Flk1; > 100 µM at PDGFR-β; > 100 µM in assay [3]; 9.62 µM against GST-FGFR1.
